Test system: human ventricular trabeculae
Assay: Action potential recording and pro-arrhythmic score analysis in human ventricular trabeculae (hVT);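 also: sharp microelectrode action potential recordings at 37°C in Tyrode-perfused trabeculae, 4 cumulative concentrations each applied 31 min, values averaged over last 30 APs, vehicle 0.1% DMSO as control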
Conditions: 1Hz; for Beat Escape (raw data) / EADs (raw data) / Refractoriness Escape (raw data): n=4 trabeculae
Protocol: Briefly, the human heart was transferred into a dissection vessel containing a cold (4°C), fresh proprietary dissection solution. The heart was maintained completely submerged in dissection solution. Ventricular trabeculae were dissected and transferred to the recording chamber.
Briefly, a single tissue was mounted into the experimental chamber filled with oxygenated Tyrode's external solution. The temperature of the solution was maintained at 37°C with flow rate at 5 mL per minute. The tissue was allowed to equilibrate for 30–60 min with stimulation (3 V, 3 ms) at a frequency of 1.0 Hz. High impedance borosilicate microelectrodes were prepared with a tip resistance of 10–20 MΩ once filled with 3 M KCl. Upon tissue impalement, the membrane potential was allowed to stabilize (typically, around −85 mV). Tissues with resting membrane potentials more positive than −75 mV were rejected. Bipolar stimulation at 1.5x threshold was applied and recordings were performed in continuous mode with sampling at 20 kHz using ADInstruments and LabChart Software.
Interruption of perfusion/oxygenation; (2). Absence of Aps following stimulation at baseline; (3). Time frame of drug exposure not respected; (4). Unstable response to stimulation at baseline; (5). Resting membrane potential (RMP) > −75 mV; 7). Maximal amplitude of AP (AMAX) <70 mV; 8). AP duration at 90% repolarization (APD90) <200 ms or >450 ms.
Experimental Procedure: Each test article was evaluated at 4 concentrations in 4 ventricular trabeculae derived from a minimum of 2 donor hearts. Testing concentrations were chosen based upon human free ETPC, aiming to cover 1–100-fold of human free ETPC. […] Briefly, following stabilization of each tissue, APs were collected and assessed for 31 min in vehicle control solution (Tyrode with 0.1% DMSO) at stimulation frequencies of 1 Hz for 25 min, 2 Hz for 3 min and then 1 Hz for 3 min. Following this vehicle control period, 4 concentrations of a test compound were applied sequentially and cumulatively. Each concentration was applied for 31 min with the same stimulation sequence as in vehicle controls.
For each frequency tested, the last 30 APs acquired at the end of the period were averaged for vehicle controls and for each test article concentration. Analysis at 1 Hz included only the last 30 APs of the initial 25-min incubation period. The following AP parameters and pro-arrhythmia variables were analyzed offline upon the completion of recordings:
• RMP (mV) • AMAX (mV) • AP duration at percent repolarization (APD20, APD30, APD50, APD60, APD90) (ms) • Short term variability analysis of AP duration (STV): Beat-to-beat variability of repolarization was quantified as STV from APD90 Poincare plots over a period of 30 sec.
Compound effects were quantified relative to the data collected during the vehicle control period (see Figure 1). […] Additionally, based on AnaBios historical data, threshold values for changes over baseline control for AP instability, APD alternans, Maximum APD dispersion and ERP (APD) were based upon an effect level of 10%. When applicable, differences were tested for statistical significance using the unpaired Student's t-test. A value of P < 0.05 was considered significant.
AP parameters and pro-arrhythmia variables were combined into a meaningful, single score to assess the pro-arrhythmic risk of a compound at each concentration tested. The pro-arrhythmic potential of compounds at 1 or 2 Hz was determined by assigning a weighted scale to each variable (Table 1).

Nc1nnc(-c2cccc(Cl)c2Cl)c(N)n1 [LAMOTRIGINE, Lamotrigine]
AMAX (average raw data) (0.6-FOLD free ETPC (17µM)): 101
AMAX percentage change compared to vehicle control (0.6-FOLD free ETPC (17µM)): -5%
APD30 (average raw data) (0.6-FOLD free ETPC (17µM)): 147
APD30 percentage change compared to vehicle control (0.6-FOLD free ETPC (17µM)): -2%
APD50 (average raw data) (0.6-FOLD free ETPC (17µM)): 197
APD50 percentage change compared to vehicle control (0.6-FOLD free ETPC (17µM)): 0%
APD90 (average raw data) (0.6-FOLD free ETPC (17µM)): 282
APD90 percentage change compared to vehicle control (0.6-FOLD free ETPC (17µM)): 1%
Alternans (average raw data) (0.6-FOLD free ETPC (17µM)): 0.88
Alternans percentage change compared to vehicle control (0.6-FOLD free ETPC (17µM)): -35%
Beat Escape percentage change compared to vehicle control (0.6-FOLD free ETPC (17µM)): 0%
EADs percentage change compared to vehicle control (0.6-FOLD free ETPC (17µM)): 0%
ERP (average raw data) (0.6-FOLD free ETPC (17µM)): 0.44
ERP percentage change compared to vehicle control (0.6-FOLD free ETPC (17µM)): 4%
Max Dispersion (average raw data) (0.6-FOLD free ETPC (17µM)): 4.42
Max Dispersion percentage change compared to vehicle control (0.6-FOLD free ETPC (17µM)): -5%
RMP (average raw data) (0.6-FOLD free ETPC (17µM)): -83
RMP percentage change compared to vehicle control (0.6-FOLD free ETPC (17µM)): -3%
Refractoriness Escape percentage change compared to vehicle control (0.6-FOLD free ETPC (17µM)): 0%
STV (average raw data) (0.6-FOLD free ETPC (17µM)): 0.60
STV percentage change compared to vehicle control (0.6-FOLD free ETPC (17µM)): -26%
Triangulation (average raw data) (0.6-FOLD free ETPC (17µM)): 136
Triangulation percentage change compared to vehicle control (0.6-FOLD free ETPC (17µM)): 3%
Beat Escape (raw data) (0.6-FOLD free ETPC (17µM)): 0
EADs (raw data) (0.6-FOLD free ETPC (17µM)): 0
Refractoriness Escape (raw data) (0.6-FOLD free ETPC (17µM)): 0
AMAX (average raw data) (6-FOLD free ETPC (17µM)): 106
AMAX percentage change compared to vehicle control (6-FOLD free ETPC (17µM)): -1%
APD30 (average raw data) (6-FOLD free ETPC (17µM)): 128
APD30 percentage change compared to vehicle control (6-FOLD free ETPC (17µM)): -15%
APD50 (average raw data) (6-FOLD free ETPC (17µM)): 169
APD50 percentage change compared to vehicle control (6-FOLD free ETPC (17µM)): -14%
APD90 (average raw data) (6-FOLD free ETPC (17µM)): 249
APD90 percentage change compared to vehicle control (6-FOLD free ETPC (17µM)): -11%
Alternans (average raw data) (6-FOLD free ETPC (17µM)): 1.29
Alternans percentage change compared to vehicle control (6-FOLD free ETPC (17µM)): -5%
Beat Escape percentage change compared to vehicle control (6-FOLD free ETPC (17µM)): 0%
EADs percentage change compared to vehicle control (6-FOLD free ETPC (17µM)): 0%
ERP (average raw data) (6-FOLD free ETPC (17µM)): 0.41
ERP percentage change compared to vehicle control (6-FOLD free ETPC (17µM)): -3%
Max Dispersion (average raw data) (6-FOLD free ETPC (17µM)): 5.13
Max Dispersion percentage change compared to vehicle control (6-FOLD free ETPC (17µM)): 10%
RMP (average raw data) (6-FOLD free ETPC (17µM)): -87
RMP percentage change compared to vehicle control (6-FOLD free ETPC (17µM)): 2%
Refractoriness Escape percentage change compared to vehicle control (6-FOLD free ETPC (17µM)): 0%
STV (average raw data) (6-FOLD free ETPC (17µM)): 0.81
STV percentage change compared to vehicle control (6-FOLD free ETPC (17µM)): 302%
Triangulation (average raw data) (6-FOLD free ETPC (17µM)): 121
Triangulation percentage change compared to vehicle control (6-FOLD free ETPC (17µM)): -8%
Beat Escape (raw data) (6-FOLD free ETPC (17µM)): 0
EADs (raw data) (6-FOLD free ETPC (17µM)): 0
Refractoriness Escape (raw data) (6-FOLD free ETPC (17µM)): 0
AMAX (average raw data) (18-FOLD free ETPC (17µM)): 97
AMAX percentage change compared to vehicle control (18-FOLD free ETPC (17µM)): -9%
APD30 (average raw data) (18-FOLD free ETPC (17µM)): 115
APD30 percentage change compared to vehicle control (18-FOLD free ETPC (17µM)): -23%
APD50 (average raw data) (18-FOLD free ETPC (17µM)): 152
APD50 percentage change compared to vehicle control (18-FOLD free ETPC (17µM)): -23%
APD90 (average raw data) (18-FOLD free ETPC (17µM)): 244
APD90 percentage change compared to vehicle control (18-FOLD free ETPC (17µM)): -13%
Alternans (average raw data) (18-FOLD free ETPC (17µM)): 7.23
Alternans percentage change compared to vehicle control (18-FOLD free ETPC (17µM)): 435%
Beat Escape percentage change compared to vehicle control (18-FOLD free ETPC (17µM)): 25%
EADs percentage change compared to vehicle control (18-FOLD free ETPC (17µM)): 0%
ERP (average raw data) (18-FOLD free ETPC (17µM)): 0.39
ERP percentage change compared to vehicle control (18-FOLD free ETPC (17µM)): -7%
Max Dispersion (average raw data) (18-FOLD free ETPC (17µM)): 10.63
Max Dispersion percentage change compared to vehicle control (18-FOLD free ETPC (17µM)): 127%
RMP (average raw data) (18-FOLD free ETPC (17µM)): -90
RMP percentage change compared to vehicle control (18-FOLD free ETPC (17µM)): 5%
Refractoriness Escape percentage change compared to vehicle control (18-FOLD free ETPC (17µM)): 0%
STV (average raw data) (18-FOLD free ETPC (17µM)): 5.08
STV percentage change compared to vehicle control (18-FOLD free ETPC (17µM)): 477%
Triangulation (average raw data) (18-FOLD free ETPC (17µM)): 130
Triangulation percentage change compared to vehicle control (18-FOLD free ETPC (17µM)): -2%
Beat Escape (raw data) (18-FOLD free ETPC (17µM)): 1
EADs (raw data) (18-FOLD free ETPC (17µM)): 0
Refractoriness Escape (raw data) (18-FOLD free ETPC (17µM)): 0
AMAX (average raw data) (59-FOLD free ETPC (17µM)): 39
AMAX percentage change compared to vehicle control (59-FOLD free ETPC (17µM)): -63%
APD30 (average raw data) (59-FOLD free ETPC (17µM)): 48
APD30 percentage change compared to vehicle control (59-FOLD free ETPC (17µM)): -69%
APD50 (average raw data) (59-FOLD free ETPC (17µM)): 66
APD50 percentage change compared to vehicle control (59-FOLD free ETPC (17µM)): -67%
APD90 (average raw data) (59-FOLD free ETPC (17µM)): 169
APD90 percentage change compared to vehicle control (59-FOLD free ETPC (17µM)): -38%
Alternans (average raw data) (59-FOLD free ETPC (17µM)): 6.14
Alternans percentage change compared to vehicle control (59-FOLD free ETPC (17µM)): 354%
Beat Escape percentage change compared to vehicle control (59-FOLD free ETPC (17µM)): 100%
EADs percentage change compared to vehicle control (59-FOLD free ETPC (17µM)): 0%
ERP (average raw data) (59-FOLD free ETPC (17µM)): 0.38
ERP percentage change compared to vehicle control (59-FOLD free ETPC (17µM)): -10%
Max Dispersion (average raw data) (59-FOLD free ETPC (17µM)): 28.20
Max Dispersion percentage change compared to vehicle control (59-FOLD free ETPC (17µM)): 503%
RMP (average raw data) (59-FOLD free ETPC (17µM)): -74
RMP percentage change compared to vehicle control (59-FOLD free ETPC (17µM)): -9%
Refractoriness Escape percentage change compared to vehicle control (59-FOLD free ETPC (17µM)): 0%
STV (average raw data) (59-FOLD free ETPC (17µM)): 3.94
STV percentage change compared to vehicle control (59-FOLD free ETPC (17µM)): 2736%
Triangulation (average raw data) (59-FOLD free ETPC (17µM)): 121
Triangulation percentage change compared to vehicle control (59-FOLD free ETPC (17µM)): 1%
Beat Escape (raw data) (59-FOLD free ETPC (17µM)): 4
EADs (raw data) (59-FOLD free ETPC (17µM)): 0

Source: publication PMC5760531, “Action Potential Recording and Pro-arrhythmia Risk Analysis in Human Ventricular Trabeculae” (Frontiers in Physiology, 2018)
